Test in all cases: Bacterial susceptibility testing (MIC, broth microdilution)
Common to all, as to assay type: cell-based

In one experiment the test system is E. coli ATCC25922. Particulars: Escherichia coli, ATCC25922, broth microdilution, cation adjusted Mueller-Hinton Broth, 35° C., 18-24 h; read-out: E. coli ATCC25922 MIC. The method, boiled down: (§1)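 CLSI broth microdilution was run in cation-adjusted Mueller-Hinton broth with an inoculum of 3×10^5–7×10^5 CFU/mL and 2-fold compound dilutions. Plates were incubated in ambient air at 35° C for 18-24 h. MIC was the lowest concentration preventing visible growth (OD600 nm<0.05).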
(In general: Broth dilution looks for growth in wells or tubes with falling amounts of substance.)

Another experiment relates to P. aeruginosa ATCC27853. Conditions: Pseudomonas aeruginosa, ATCC27853, broth microdilution, cation adjusted Mueller-Hinton Broth, 35° C., 18-24 h; read-out: P. aeruginosa ATCC27853 MIC. The method, boiled down: as §1
The next experiment has as its system P. aeruginosa PAO1. Conditions: Pseudomonas aeruginosa, PAO1; broth microdilution, cation adjusted Mueller-Hinton Broth, 35° C., 18-24 h; read-out: P. aeruginosa PAO1 MIC. Summed up:
as §1

Another experiment deals with K. pneumoniae ATCC13883. Particulars: Klebsiella pneumoniae, ATCC13883, broth microdilution, cation adjusted Mueller-Hinton Broth, 35° C., 18-24 h; read-out: K. pneumoniae ATCC13883 MIC. The method, boiled down:
as §1

Converted amounts (≈) assume the structure as drawn.

Usually MIC stands for the lowest concentration that inhibits growth of the organism. As to `C[C@H](O)c1nccn1[C@@H](C#Cc1ccc(-c2ccc(NC3CC(NCC#N)C3)cc2)cc1)CO` (stereo partly drawn) [Compound 68, 2-((3-((4′-((S)-4-hydroxy-3-(2-((S)-1-hydroxyethyl)-1H-imidazol-1-yl)but-1-yn-1-yl)-[1,1′-biphenyl]-4-yl)amino)cyclobutyl)amino) acetonitrile], the minimum inhibitory concentration (MIC) in the experiment with E. coli ATCC25922 turned out to be 1 µg/mL (≈ 2.2 µM); in the experiment on P. aeruginosa ATCC27853, 4 µg/mL (≈ 8.78 µM); with P. aeruginosa PAO1, 2 µg/mL (≈ 4.39 µM); in the experiment with K. pneumoniae ATCC13883, 2 µg/mL (≈ 4.39 µM).
For `C[C@H](O)c1nccn1[C@@H](C#Cc1ccc(-c2ccc(NC3COC[C@@H]3O)cc2F)cc1)CO` (single isomer, unassigned) [Compound 57], the MIC in the experiment on E. coli ATCC25922 came out at 1 µg/mL (≈ 2.21 µM); in the experiment on P. aeruginosa ATCC27853, 2 µg/mL (≈ 4.43 µM); in the experiment with P. aeruginosa PAO1, 2 µg/mL (≈ 4.43 µM); in the experiment on K. pneumoniae ATCC13883, 4 µg/mL (≈ 8.86 µM).
As for `C[C@H](O)c1nccn1[C@@H](C#Cc1ccc(-c2ccc(O[C@@H]3CCOC[C@H]3O)cc2)cc1)CO` [Compound 72, (3R,4R)-4-((4′-((S)-4-hydroxy-3-(2-((S)-1-hydroxyethyl)-1H-imidazol-1-yl)but-1-yn-1-yl)-[1,1′-biphenyl]-4-yl)oxy)tetrahydro-2H-pyran-3-ol], the MIC with E. coli ATCC25922 worked out at 1 µg/mL (≈ 2.23 µM); in the experiment with P. aeruginosa ATCC27853 it was 8 µg/mL (≈ 17.8 µM); in the experiment with P. aeruginosa PAO1, 2 µg/mL (≈ 4.46 µM); in the experiment on K. pneumoniae ATCC13883, 2 µg/mL (≈ 4.46 µM).
For `C[C@H](O)c1nccn1[C@@H](C#Cc1ccc(-c2ccc(O[C@@H]3COC[C@H]3O)c(F)c2)c(F)c1)CO` (single isomer, unassigned) [Compound 10], the minimum inhibitory concentration (MIC) in the experiment with E. coli ATCC25922 turned out to be 1 µg/mL (≈ 2.13 µM); with P. aeruginosa ATCC27853 it was 8 µg/mL (≈ 17 µM); with P. aeruginosa PAO1, 4 µg/mL (≈ 8.5 µM); in the experiment with K. pneumoniae ATCC13883, 2 µg/mL (≈ 4.25 µM).
Consider `C[C@H](O)c1nccn1[C@@H](C#Cc1ccc(-c2ccc(O[C@@H]3CCOC[C@H]3O)cc2F)cc1)CO` (racemic) [Compound 54, (rac-trans)-4-((2-fluoro-4′-((S)-4-hydroxy-3-(2-((S)-1-hydroxyethyl)-1H-imidazol-1-yl)but-1-yn-1-yl)-[1,1′-biphenyl]-4-yl)oxy)tetrahydro-2H-pyran-3-ol], for which the MIC in the experiment with E. coli ATCC25922 was found to be 1 µg/mL (≈ 2.14 µM); in the experiment with P. aeruginosa ATCC27853, 8 µg/mL (≈ 17.1 µM); in the experiment with P. aeruginosa PAO1 it was 4 µg/mL (≈ 8.57 µM); in the experiment with K. pneumoniae ATCC13883 it was 2 µg/mL (≈ 4.29 µM).
Regarding `C[C@H](O)c1nccn1[C@@H](C#Cc1ccc(-c2ccc([C@@H]3COC[C@H]3O)cc2)cc1)CO` (single isomer, unassigned) [Compound 116], the MIC in the experiment on E. coli ATCC25922 turned out to be 0.5 µg/mL (≈ 1.19 µM); with P. aeruginosa ATCC27853 it was 4 µg/mL (≈ 9.56 µM); with P. aeruginosa PAO1 it was 1 µg/mL (≈ 2.39 µM); with K. pneumoniae ATCC13883, 2 µg/mL (≈ 4.78 µM).
`C[C@H](O)c1nccn1[C@@H](C#Cc1ccc(-c2ccc(O[C@H]3CCOC[C@@H]3O)cc2F)cc1)CO` (single isomer, unassigned) [Compound 56]: the MIC in the experiment with E. coli ATCC25922 amounted to 1 µg/mL (≈ 2.14 µM); in the experiment on P. aeruginosa ATCC27853 it was 8 µg/mL (≈ 17.1 µM); in the experiment on P. aeruginosa PAO1 it was 2 µg/mL (≈ 4.29 µM); in the experiment with K. pneumoniae ATCC13883 it was 2 µg/mL (≈ 4.29 µM).
With `C[C@H](O)c1nccn1[C@@H](C#Cc1ccc(-c2ccc(O[C@@H]3CCOC[C@H]3O)c(F)c2)cc1)CO` (single isomer, unassigned) [Compound 52], the MIC in the experiment with E. coli ATCC25922 came to 1 µg/mL (≈ 2.14 µM); with P. aeruginosa ATCC27853, 8 µg/mL (≈ 17.1 µM); in the experiment on P. aeruginosa PAO1 it was 2 µg/mL (≈ 4.29 µM); with K. pneumoniae ATCC13883 it was 2 µg/mL (≈ 4.29 µM).
Consider `C[C@H](O)c1nccn1[C@@H](C#Cc1ccc(-c2ccc(O[C@H]3C[C@H](CNCC#N)C3)cc2)cc1)CO` (racemic) [Compound 133, 2-((((rac-trans)-3-((4′-((S)-4-hydroxy-3-(2-((S)-1-hydroxyethyl)-1H-imidazol-1-yl)but-1-yn-1-yl)-[1,1′-biphenyl]-4-yl)oxy)cyclobutyl)methyl)amino) acetonitrile], for which the MIC turned out to be 1 µg/mL (≈ 2.13 µM) in the experiment with E. coli ATCC25922, 4 µg/mL (≈ 8.5 µM) with P. aeruginosa ATCC27853, 4 µg/mL (≈ 8.5 µM) in the experiment with P. aeruginosa PAO1 and 8 µg/mL (≈ 17 µM) in the experiment with K. pneumoniae ATCC13883.
Turning to `C[C@H](O)c1nccn1[C@@H](C#Cc1ccc(-c2ccc(NC3COC[C@H]3O)cc2F)cc1)CO` (single isomer, unassigned) [Compound 58], the MIC is 1 µg/mL (≈ 2.21 µM) in the experiment on E. coli ATCC25922, 4 µg/mL (≈ 8.86 µM) in the experiment with P. aeruginosa ATCC27853, 4 µg/mL (≈ 8.86 µM) in the experiment with P. aeruginosa PAO1 and 4 µg/mL (≈ 8.86 µM) with K. pneumoniae ATCC13883.
In the case of `C[C@H](O)c1nccn1[C@@H](C#Cc1ccc(-c2ccc(O[C@H]3CCOC[C@@H]3O)c(F)c2)cc1)CO` (single isomer, unassigned) [Compound 53], the MIC worked out at 1 µg/mL (≈ 2.14 µM) in the experiment with E. coli ATCC25922, 8 µg/mL (≈ 17.1 µM) in the experiment with P. aeruginosa ATCC27853, 4 µg/mL (≈ 8.57 µM) with P. aeruginosa PAO1 and 4 µg/mL (≈ 8.57 µM) in the experiment on K. pneumoniae ATCC13883.
Regarding `C[C@H](O)c1nccn1[C@@H](C#Cc1ccc(-c2ccc([C@H]3COC[C@@H]3O)cc2)cc1)CO` (single isomer, unassigned) [Compound 115], the MIC in the experiment with E. coli ATCC25922 stood at 1 µg/mL (≈ 2.39 µM); in the experiment on P. aeruginosa ATCC27853, 8 µg/mL (≈ 19.1 µM); in the experiment with P. aeruginosa PAO1, 2 µg/mL (≈ 4.78 µM); with K. pneumoniae ATCC13883, 1 µg/mL (≈ 2.39 µM).
For `CC(=O)N[C@H]1C[C@@H](c2ccc(-c3ccc(C#C[C@@H](CO)n4ccnc4[C@H](C)O)cc3)cc2)C1` (racemic) [Compound 135, N-((rac-cis)-3-(4′-((S)-4-hydroxy-3-(2-((S)-1-hydroxyethyl)-1H-imidazol-1-yl)but-1-yn-1-yl)-[1,1′-biphenyl]-4-yl)cyclobutyl)acetamide], the MIC in the experiment on E. coli ATCC25922 is 0.5 µg/mL (≈ 1.13 µM); in the experiment with P. aeruginosa ATCC27853, 2 µg/mL (≈ 4.51 µM); in the experiment with P. aeruginosa PAO1, 2 µg/mL (≈ 4.51 µM); with K. pneumoniae ATCC13883 it was 2 µg/mL (≈ 4.51 µM).
On to `C[C@H](O)c1nccn1[C@@H](C#Cc1ccc(-c2ccc(CO[C@@H]3COC[C@H]3O)cc2)cc1)CO` (single isomer, unassigned) [Compound 123], for which the MIC amounted to 2 µg/mL (≈ 4.46 µM) in the experiment on E. coli ATCC25922, 4 µg/mL (≈ 8.92 µM) with P. aeruginosa ATCC27853, 2 µg/mL (≈ 4.46 µM) with P. aeruginosa PAO1 and 2 µg/mL (≈ 4.46 µM) with K. pneumoniae ATCC13883.
With `Cc1cc(-c2ccc(C#C[C@@H](CO)n3ccnc3[C@H](C)O)cc2)ccc1O[C@H]1COC[C@@H]1O` (single isomer, unassigned) [Compound 114], the MIC in the experiment with E. coli ATCC25922 is 4 µg/mL (≈ 8.92 µM); with P. aeruginosa ATCC27853, over 32 µg/mL; in the experiment on P. aeruginosa PAO1, 16 µg/mL (≈ 35.7 µM); with K. pneumoniae ATCC13883, 8 µg/mL (≈ 17.8 µM).
For `C[C@H](O)c1nccn1[C@@H](C#Cc1ccc(-c2ccc(CC3CN(CC#N)C3)cc2)cc1)CO` (single isomer, unassigned) [Compound 105], in that order: 1 µg/mL (≈ 2.27 µM), 4 µg/mL (≈ 9.08 µM), 4 µg/mL (≈ 9.08 µM) and 1 µg/mL (≈ 2.27 µM).
Turning to `C[C@H](O)c1nccn1[C@@H](C#Cc1ccc(-c2ccc(N[C@@H]3COC[C@H]3O)cc2)cc1)CO` (single isomer, unassigned) [Compound 70], the MIC came to 2 µg/mL (≈ 4.61 µM) in the experiment on E. coli ATCC25922, 1 µg/mL (≈ 2.31 µM) in the experiment with P. aeruginosa ATCC27853, 1 µg/mL (≈ 2.31 µM) with P. aeruginosa PAO1 and 4 µg/mL (≈ 9.23 µM) in the experiment with K. pneumoniae ATCC13883.
`C[C@H](O)c1nccn1[C@@H](C#Cc1ccc(-c2ccc(OC3CN(C4(C#N)COC4)C3)cc2)cc1)CO` [Compound 87, 3-(3-((4′-((S)-4-hydroxy-3-(2-((S)-1-hydroxyethyl)-1H-imidazol-1-yl)but-1-yn-1-yl)-[1,1′-biphenyl]-4-yl)oxy)azetidin-1-yl)oxetane-3-carbonitrile]: the MIC in the experiment on E. coli ATCC25922 was found to be 2 µg/mL (≈ 4.13 µM); in the experiment with P. aeruginosa ATCC27853, 8 µg/mL (≈ 16.5 µM); in the experiment with P. aeruginosa PAO1, 4 µg/mL (≈ 8.25 µM); in the experiment on K. pneumoniae ATCC13883, 4 µg/mL (≈ 8.25 µM).
As for `C[C@H](O)c1nccn1[C@@H](C#Cc1ccc(-c2ccc(OC3CCN(CC#N)CC3)cc2)cc1)CO` (single isomer, unassigned) [Compound 103], the MIC came out at 1 µg/mL (≈ 2.13 µM) in the experiment on E. coli ATCC25922, 2 µg/mL (≈ 4.25 µM) in the experiment with P. aeruginosa ATCC27853, 2 µg/mL (≈ 4.25 µM) with P. aeruginosa PAO1 and 2 µg/mL (≈ 4.25 µM) in the experiment on K. pneumoniae ATCC13883.

The values are drawn from patent US20260049092A1, “ANTIBACTERIAL COMPOUNDS” (Blacksmith Medicines, Inc., priority 2022, published 2026).
